Laboratory results reported in patent US8163929B2, “Dihydropyridone amides as P2X7 modulators” (Roche Palo Alto LLC, priority 2008, dated 2012).

Biological target: T1, P2X7 (UniProt Q99572)
T1 sequence (Q99572 1-595): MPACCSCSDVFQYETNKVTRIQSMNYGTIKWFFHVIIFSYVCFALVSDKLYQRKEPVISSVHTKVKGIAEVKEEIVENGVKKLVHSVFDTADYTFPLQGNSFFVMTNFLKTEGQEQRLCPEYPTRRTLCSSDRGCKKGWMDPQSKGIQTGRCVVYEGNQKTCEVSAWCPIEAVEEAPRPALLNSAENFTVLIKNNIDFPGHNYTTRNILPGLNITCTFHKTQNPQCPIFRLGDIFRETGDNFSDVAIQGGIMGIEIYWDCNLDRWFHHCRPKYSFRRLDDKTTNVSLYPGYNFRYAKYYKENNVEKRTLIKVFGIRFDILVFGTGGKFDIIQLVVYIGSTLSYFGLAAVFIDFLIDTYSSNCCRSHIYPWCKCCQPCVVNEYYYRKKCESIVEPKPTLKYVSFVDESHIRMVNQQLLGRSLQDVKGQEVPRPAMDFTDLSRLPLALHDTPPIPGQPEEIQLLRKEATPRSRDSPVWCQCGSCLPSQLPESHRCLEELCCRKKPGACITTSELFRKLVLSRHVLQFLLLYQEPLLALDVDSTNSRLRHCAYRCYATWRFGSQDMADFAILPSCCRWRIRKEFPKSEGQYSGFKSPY
Assay: P2X7 activity of Table 1
Type: cell-based
Conditions: pIC50 values for P2X7
In short: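 FLIPR calcium flux with fluo-3 in 1321N1 cells expressing human P2X7 and HEK293 cells expressing rat P2X7, in HBSS with 2 mM CaCl2 and 2.5 mM probenecid. Antagonist pre-incubated 20 min at room temperature, then BzATP added (100 μM human, 5 μM rat). Peak response over 5 min normalised to 5 μM ionomycin.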

pIC50 | SMILES
7.8 | Cc1ccc(-c2ccnn(CCO)c2=O)cc1NC(=O)C1=CN(C)C(=O)C[C@H]1c1ccc(F)cc1 [Compound 94, (S)-4-(4-Fluoro-phenyl)-1-methyl-6-oxo-1,4,5,6-tetrahydro-pyridine-3-carboxylic acid {5-[2-(2-hydroxy-ethyl)-3-oxo-2,3-dihydro-pyridazin-4-yl]-2-methyl-phenyl}-amide]
7.85 | Cc1ccc(-c2cc(C)n(CCO)n2)cc1NC(=O)C1=CNC(=O)CC1c1cc(F)cc(F)c1 (centres unmarked) [Compound 95, 4-(3,5-Difluoro-phenyl)-6-oxo-1,4,5,6-tetrahydro-pyridine-3-carboxylic acid {5-[1-(2-hydroxy-ethyl)-5-methyl-1H-pyrazol-3-yl]-2-methyl-phenyl}-amide]
7.48 | Cc1ccc(-c2ccc(C)c(NC(=O)C3=CNC(=O)C[C@H]3c3cccc(F)c3)c2)nn1 [Compound 96, (S)-4-(3-Fluoro-phenyl)-6-oxo-1,4,5,6-tetrahydro-pyridine-3-carboxylic acid [2-methyl-5-(6-methyl-pyridazin-3-yl)-phenyl]-amide]
7.09 | Cc1ccc(-c2ncccn2)cc1NC(=O)C1=CNC(=O)C[C@H]1c1cccc(F)c1 [Compound 97, (S)-4-(3-Fluoro-phenyl)-6-oxo-1,4,5,6-tetrahydro-pyridine-3-carboxylic acid (2-methyl-5-pyrimidin-2-yl-phenyl)-amide]
6.52 | Cc1ccc(-c2ccc(=O)n(C)n2)cc1NC(=O)C1=CNC(=O)C[C@H]1c1ccc(F)cc1 [Compound 98, (S)-4-(4-Fluoro-phenyl)-6-oxo-1,4,5,6-tetrahydro-pyridine-3-carboxylic acid [2-methyl-5-(1-methyl-6-oxo-1,6-dihydro-pyridazin-3-yl)-phenyl]-amide]
7.515 | Cc1ccc(-c2ccc(=O)[nH]n2)cc1NC(=O)C1=CNC(=O)C[C@H]1c1ccc(F)cc1 [Compound 99, (S)-4-(4-Fluoro-phenyl)-6-oxo-1,4,5,6-tetrahydro-pyridine-3-carboxylic acid [2-methyl-5-(6-oxo-1,6-dihydro-pyridazin-3-yl)-phenyl]-amide]
7.5 | Cc1ccc(-n2ncc(=O)n(CCO)c2=O)cc1NC(=O)C1=CN(C)C(=O)C[C@H]1c1ccc(F)cc1 [Compound 100, (S)-4-(4-Fluoro-phenyl)-1-methyl-6-oxo-1,4,5,6-tetrahydro-pyridine-3-carboxylic acid {5-[4-(2-hydroxy-ethyl)-3,5-dioxo-4,5-dihydro-3H-[1,2,4]triazin-2-yl]-2-methyl-phenyl}-amide]
7.57 | Cc1ccc(-n2ncc(=O)n(CCO)c2=O)cc1NC(=O)C1=CN(C)C(=O)C[C@H]1c1cccc(F)c1 [Compound 101, (S)-4-(3-Fluoro-phenyl)-1-methyl-6-oxo-1,4,5,6-tetrahydro-pyridine-3-carboxylic acid {5-[4-(2-hydroxy-ethyl)-3,5-dioxo-4,5-dihydro-3H-[1,2,4]triazin-2-yl]-2-methyl-phenyl}-amide]
5.77 | Cc1ccc(-c2cc(C(F)(F)F)[nH]n2)cc1NC(=O)C1=CNC(=O)C[C@H]1c1ccc(F)cc1 [Compound 102, (S)-4-(4-Fluoro-phenyl)-6-oxo-1,4,5,6-tetrahydro-pyridine-3-carboxylic acid [2-methyl-5-(5-trifluoromethyl-1H-pyrazol-3-yl)-phenyl]-amide]
7.1 | COC[C@@H](O)Cn1nc(-c2ccc(C)c(NC(=O)C3=CN(C)C(=O)C[C@H]3c3cccc(F)c3)c2)cc1C [Compound 103, (S)-4-(3-Fluoro-phenyl)-1-methyl-6-oxo-1,4,5,6-tetrahydro-pyridine-3-carboxylic acid {5-[1-((S)-2-hydroxy-3-methoxy-propyl)-5-methyl-1H-pyrazol-3-yl]-2-methyl-phenyl}-amide]
7.8 | COC[C@H](O)Cn1nccc(-c2ccc(C)c(NC(=O)C3=CN(C)C(=O)C[C@H]3c3cccc(F)c3)c2)c1=O [Compound 104, (S)-4-(3-Fluoro-phenyl)-1-methyl-6-oxo-1,4,5,6-tetrahydro-pyridine-3-carboxylic acid {5-[2-((R)-2-hydroxy-3-methoxy-propyl)-3-oxo-2,3-dihydro-pyridazin-4-yl]-2-methyl-phenyl}-amide]
7.57 | COC[C@H](O)Cn1nccc(-c2ccc(C)c(NC(=O)C3=CN(C)C(=O)C[C@H]3c3ccc(F)cc3)c2)c1=O [Compound 105, (S)-4-(4-Fluoro-phenyl)-1-methyl-6-oxo-1,4,5,6-tetrahydro-pyridine-3-carboxylic acid {5-[2-((R)-2-hydroxy-3-methoxy-propyl)-3-oxo-2,3-dihydro-pyridazin-4-yl]-2-methyl-phenyl}-amide]
7.885 | COC[C@H](O)Cn1nccc(-c2ccc(C)c(NC(=O)C3=CNC(=O)C[C@H]3c3ccc(F)cc3)c2)c1=O [Compound 106, (S)-4-(4-Fluoro-phenyl)-6-oxo-1,4,5,6-tetrahydro-pyridine-3-carboxylic acid {5-[2-((R)-2-hydroxy-3-methoxy-propyl)-3-oxo-2,3-dihydro-pyridazin-4-yl]-2-methyl-phenyl}-amide]
6.81 | Cc1ccc(-n2ncc(=O)[nH]c2=O)cc1NC(=O)C1=CN(C)C(=O)C[C@H]1c1ccc(F)cc1 [Compound 107, (S)-4-(4-Fluoro-phenyl)-1-methyl-6-oxo-1,4,5,6-tetrahydro-pyridine-3-carboxylic acid [5-(3,5-dioxo-4,5-dihydro-3H-[1,2,4]triazin-2-yl)-2-methyl-phenyl]-amide]
7.145 | Cc1ccc(-n2ncc(=O)[nH]c2=O)cc1NC(=O)C1=CN(C)C(=O)C[C@H]1c1cccc(F)c1 [Compound 108, (S)-4-(3-Fluoro-phenyl)-1-methyl-6-oxo-1,4,5,6-tetrahydro-pyridine-3-carboxylic acid [5-(3,5-dioxo-4,5-dihydro-3H-[1,2,4]triazin-2-yl)-2-methyl-phenyl]-amide]
8.045 | Cc1ccc(-c2ccnn(C)c2=O)cc1NC(=O)C1=CNC(=O)C[C@H]1c1cccc(F)c1 [Compound 109, (S)-4-(3-Fluoro-phenyl)-6-oxo-1,4,5,6-tetrahydro-pyridine-3-carboxylic acid [2-methyl-5-(2-methyl-3-oxo-2,3-dihydro-pyridazin-4-yl)-phenyl]-amide]
7.17 | Cc1ccc(-n2ncccc2=O)cc1NC(=O)C1=CN(C)C(=O)C[C@H]1c1ccc(F)cc1 [Compound 110, (S)-4-(4-Fluoro-phenyl)-1-methyl-6-oxo-1,4,5,6-tetrahydro-pyridine-3-carboxylic acid [2-methyl-5-(6-oxo-6H-pyridazin-1-yl)-phenyl]-amide]
6.895 | Cc1ccc(-c2cc(C(F)(F)F)n(CCO)n2)cc1NC(=O)C1=CN(C)C(=O)C[C@H]1c1cccc(F)c1 [Compound 111, (S)-4-(3-Fluoro-phenyl)-1-methyl-6-oxo-1,4,5,6-tetrahydro-pyridine-3-carboxylic acid {5-[1-(2-hydroxy-ethyl)-5-trifluoromethyl-1H-pyrazol-3-yl]-2-methyl-phenyl}-amide]
7.645 | Cc1ccc(-c2ccn(CCO)n2)cc1NC(=O)C1=CN(C)C(=O)C[C@H]1c1cccc(F)c1 [Compound 112, (S)-4-(3-Fluoro-phenyl)-1-methyl-6-oxo-1,4,5,6-tetrahydro-pyridine-3-carboxylic acid {5-[1-(2-hydroxy-ethyl)-1H-pyrazol-3-yl]-2-methyl-phenyl}-amide]
7.04 | Cc1cc(-c2ccc(Cl)c(NC(=O)C3=CN(C)C(=O)C[C@H]3c3ccc(F)cc3)c2)nn1CCO [Compound 115, (S)-4-(4-Fluoro-phenyl)-1-methyl-6-oxo-1,4,5,6-tetrahydro-pyridine-3-carboxylic acid {2-chloro-5-[1-(2-hydroxy-ethyl)-5-methyl-1H-pyrazol-3-yl]-phenyl}-amide]
7.565 | Cc1ccc(-c2ccc[nH]c2=O)cc1NC(=O)C1=CN(C)C(=O)C[C@H]1c1ccc(F)cc1 [Compound 116, (S)-4-(4-Fluoro-phenyl)-1-methyl-6-oxo-1,4,5,6-tetrahydro-pyridine-3-carboxylic acid [2-methyl-5-(2-oxo-1,2-dihydro-pyridin-3-yl)-phenyl]-amide]
7.22 | COc1ccc(-c2ccc(C)c(NC(=O)C3=CN(C)C(=O)C[C@H]3c3ccc(F)cc3)c2)nn1 [Compound 117, (S)-4-(4-Fluoro-phenyl)-1-methyl-6-oxo-1,4,5,6-tetrahydro-pyridine-3-carboxylic acid [5-(6-methoxy-pyridazin-3-yl)-2-methyl-phenyl]-amide]
6.585 | Cc1ccc(-c2ccc(=O)[nH]n2)cc1NC(=O)C1=CN(C)C(=O)C[C@H]1c1ccc(F)cc1 [Compound 118, (S)-4-(4-Fluoro-phenyl)-1-methyl-6-oxo-1,4,5,6-tetrahydro-pyridine-3-carboxylic acid [2-methyl-5-(6-oxo-1,6-dihydro-pyridazin-3-yl)-phenyl]-amide]
